Values of other authors as cited in patent US6872523B1, “Materials and methods for molecular detection of clinically relevant pathogenic fungal species” (The Board of Regents of the University of Nebraska, priority 2000, dated 2005).

Legend:
[1] = test system: A. terreus isolates; details: share of A. terreus isolates resistant to AmB (refs 10, 17, 22)
[2] = test system: A. nidulans; details: high end of the reported MIC range
[3] = test system: A. flavus; details: high end of the reported MIC range
[4] = test system: A. niger; details: low end of the reported MIC range
[5] = test system: A. fumigatus; details: low end of the reported MIC range

C[C@@H]1[C@H](O)[C@@H](C)/C=C/C=C/C=C/C=C/C=C/C=C/C=C/[C@H](O[C@@H]2O[C@H](C)[C@@H](O)[C@H](N)[C@@H]2O)C[C@@H]2O[C@](O)(C[C@@H](O)C[C@@H](O)[C@H](O)CC[C@@H](O)C[C@@H](O)CC(=O)O[C@H]1C)C[C@H](O)[C@H]2C(=O)O [AmB, amphotericin B]
isolates reported as resistant [1]: over 95% | AmB MIC [2]: 16 µg/mL | AmB MIC [3]: 16 µg/mL | AmB MIC [4]: 0.5 µg/mL | AmB MIC [5]: 0.5 µg/mL
